No end group written: not given here.
What was measured:
[1] = tested on: juvenile Clarias gariepinus; test: Growth stimulation in Clarias gariepinus by recombinant PACAP in the fish diet; type: in vivo; details: in the diet at 5 mg/Kg of feed; 30 days; p<0.01
Description: The Pichia pastoris culture supernatant containing the recombinant PACAP (SEQ ID No. 14) was concentrated and formulated in the nutritional fish diet to a concentration of approximately 5 mg/Kg of feed. Two experimental groups were formed having 100 larvae in each with an average body weight of 0.1 g. One group was treated with recombinant PACAP (SEQ ID No. 14) containing in P. pastoris culture supernatants and the other used as a control group was treated with non-transformed P. pastoris culture supernatant. The experiment was carried out during 30 days.

[2] = tested on: tilapia Oreochromis niloticus; test: Effect of recombinant PACAP on juvenile tilapia appetite (ingested food); type: in vivo; details: i.p. 0.1 μg/g; 6 hours and 22 hours; p<0.05
Description: To analyze the effect of the PACAP in the fish appetite, we used tilapia of the Oreochromis niloticus species, without sex distinction and approximately the same average body weight. Three experimental groups were formed having 3 individuals in each and 3 replicates per group. The groups were acclimated in separated tanks with stable water recirculation, to a temperature of 28° C. and with the photoperiod of 14 hours light and 10 hours dark. […] The second group was treated with the GHRP-6 (Lipotec, S.A, Spain) by the same administration via at the dose of 0.1 μg of the peptide by gram of the animal corporal weight. The control group was treated with E. coli proteins contained in PBS 1× (E. coli proteins were obtained by the same purification procedure of the interest peptide, with the amount equivalent of the contaminants presents in the purified PACAP sample). After the treatments, the same amount of food was added to the three experimental groups, collecting the non ingested food in 6 hour and adding food again. The appetite was measured again, 22 hours from the beginning of the experiment. The food not ingested in each tank was dried in the stove (100° C., during 24 h) and was weighed in an analytical balance. The ingested food was calculated determining the difference between the food added to the tanks (10 grams, with a 20% of humidity) and the food not ingested by the fish.

Substance | growth increase compared with control group [1] [%] | appetite (ingested food) compared with control group [2]
PACAP (SEQ ID No. 14): Clarias gariepinus recombinant PACAP variant contained in P. pastoris culture supernatants; used in Examples 6-8 (HSDGIFTDSYSRYRKQMAVKKYLAAVLGRRYRQRFRNK; ends and bridges not checked; listed as Clarias gariepinus) | 30 | –
GHRP-6 | – | significant appetite increase

Source: patent publication US8833306B2, “PACAP for aquatic organism culture” (priority 2005, dated 2014)
